According to patent US12357636B2 (Urovant Sciences GmbH, priority 2018, dated 2025):
Read-outs that look alike come from different tables or passages of the source.

What was measured:
healthy subjects [1] = details: in vivo
healthy subjects [2] = system: healthy subjects
From the text: Safety data from 16 Phase 1 studies, which include 15 completed Phase 1 studies and 1 study that was terminated early (this study was terminated for reasons unrelated to efficacy or safety) was collected.

[3] = single rising oral dose Phase 1 pharmacokinetics; type: in vivo, human
Protocol: The steady state AUC geometric mean accumulation ratios were ˜2 in young male subjects and ˜2.8 in elderly subjects (male and female).
All subjects were healthy adults. […] Systemic exposures were greater than dose proportional up to 600 mg.
Although exposures were similar in middle-aged males when compared to young males, plasma concentrations were higher in elderly compared to middle-aged and young subjects. […] Furthermore, the steady state AUC geometric mean accumulation ratios were ˜2 in young males and ˜2.8 in the elderly.

β1-AR = biological target: T1, β1-AR (Homo sapiens, UniProt P08588); experiment: competition binding assay, membranes with recombinant β1-AR
T1 construct: expressed in transfected cells; membranes prepared from them
T1 sequence (P08588 whole entry): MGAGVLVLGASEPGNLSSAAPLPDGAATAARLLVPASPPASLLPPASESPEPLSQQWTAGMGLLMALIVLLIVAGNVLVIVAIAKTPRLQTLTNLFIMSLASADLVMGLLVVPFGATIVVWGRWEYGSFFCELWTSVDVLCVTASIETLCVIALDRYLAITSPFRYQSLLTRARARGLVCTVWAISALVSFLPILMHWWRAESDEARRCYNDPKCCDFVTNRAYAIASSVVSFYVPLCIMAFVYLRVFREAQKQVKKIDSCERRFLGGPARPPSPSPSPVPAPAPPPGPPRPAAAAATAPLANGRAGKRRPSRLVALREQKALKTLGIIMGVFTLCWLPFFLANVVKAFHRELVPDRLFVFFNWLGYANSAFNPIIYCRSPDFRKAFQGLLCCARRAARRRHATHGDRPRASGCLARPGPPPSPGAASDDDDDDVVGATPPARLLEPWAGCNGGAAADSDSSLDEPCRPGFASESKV

healthy volunteers = experiment: thorough QT study: RR interval and blood pressure (Table 19); type: in vivo, human
healthy subjects [4] = experiment: multiple-dose Phase 1 study: maximum MA4 heart rate; type: in vivo, human; details: Day 14
Protocol: More intensive assessments of heart rate and blood pressure were performed in healthy volunteers in several Phase 1 studies. […] Doses ranged from 25 to 400 mg once daily for 7 to 28 days depending on the cohort. Least squares mean and 90% confidence intervals of maximum change from baseline in moving average of heart rate over 4 hours postdose (MA4 HR) are presented in Table 18.

[5] = dose-Cmax and dose-AUC models, log-log regression and simulations for 75 mg; design: species or system human
Protocol: In order to contextualize PK parameters of a 75 mg dose, dose-Cmax and dose-AUC models were created using data from Phase 1 studies.

[6] = PK in renal impairment, single dose 100 mg; type: in vivo, human; details: for CL/F / Fe[urine] 48 hr / AUC0-inf: single 100 mg
From the text: The relationship between clearance and renal function was modeled using linear regression.

β2-AR = β2-AR (Homo sapiens, UniProt P07550); experiment: competition binding assay, membranes with recombinant β2-AR
Sequence of β2-AR (P07550 whole entry): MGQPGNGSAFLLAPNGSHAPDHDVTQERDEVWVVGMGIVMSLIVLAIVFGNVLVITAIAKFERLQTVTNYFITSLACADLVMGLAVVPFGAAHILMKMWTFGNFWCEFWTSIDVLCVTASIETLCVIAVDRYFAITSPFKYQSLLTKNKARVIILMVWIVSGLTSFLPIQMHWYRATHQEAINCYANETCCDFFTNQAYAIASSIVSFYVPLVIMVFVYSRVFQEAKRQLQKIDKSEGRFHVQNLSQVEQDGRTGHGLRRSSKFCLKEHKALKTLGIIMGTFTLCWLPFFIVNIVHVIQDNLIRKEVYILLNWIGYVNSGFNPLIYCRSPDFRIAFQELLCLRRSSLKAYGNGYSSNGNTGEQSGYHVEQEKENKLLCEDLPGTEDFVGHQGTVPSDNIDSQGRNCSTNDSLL

[7] = PK in moderate hepatic impairment, single dose 100 mg; type: in vivo, human; details: single 100 mg, healthy matched control subjects
[8] = system: patients with overactive bladder
From the text: A placebo group was included in the main study, and a group that received tolterodine monotherapy was included in the main study and in the extension.

[9] = human, in vivo
patients with OAB = experiment: Phase 2b study: cardiovascular safety, orthostatic AEs, blood pressure and heart rate changes (Table 17); type: in vivo, human; details: 50 mg and 100 mg
From the text: None led to discontinuation. The overall incidence of orthostatic symptoms was low.
Small differences in the percent of subjects exceeding categorical heart rate and blood pressure thresholds for vibegron were similar to those in the tolterodine arm.

[10] = healthy matched control subjects

O=C(Nc1ccc(C[C@@H]2CC[C@H]([C@H](O)c3ccccc3)N2)cc1)[C@@H]1CCc2nccc(=O)n21 [Vibegron, (6S)—N-[4-[[(2S,5R)-5-[(R)-hydroxy(phenyl)methyl]pyrrolidin-2-yl]methyl]phenyl]-4-oxo-7,8-dihydro-6H-pyrrolo[1,2-a]pyrimidine-6-carboxamide]
thorough QT study finding (healthy subjects [1]): no clinically meaningful effect on QTc or blood pressure
treatment-emergent SAEs or deaths (healthy subjects [2]; Phase 1 program): no treatment-emergent serious adverse events (SAEs) or deaths reported
tolerability across the Phase 1 program (healthy subjects [2]; single 2 to 600 mg, multiple 25 to 400 mg up to 28 days): generally well tolerated
exposure increase, young Japanese vs non-Japanese males ([3]; single dose): < 2 fold
dose proportionality of mean Cmax and AUC ([3]; up to 400 mg): greater than dose-proportional
binding to β1-AR (β1-AR): does not bind
Maximum Mean Placebo Corrected Change from Baseline Diastolic BP (90% CI) (healthy volunteers; single dose 200 mg): 2.42 mmHg
Maximum Mean Placebo Corrected Change from Baseline RR interval (90% CI) (healthy volunteers; single dose 200 mg): -84.36 ms
Maximum Mean Placebo Corrected Change from Baseline Systolic BP (90% CI) (healthy volunteers; single dose 200 mg): 2.20 mmHg
Maximum Mean Placebo Corrected Change from Baseline Diastolic BP (90% CI) (healthy volunteers; single dose 400 mg): 3.99 mmHg
Maximum Mean Placebo Corrected Change from Baseline RR interval (90% CI) (healthy volunteers; single dose 400 mg): -162.45 ms
Maximum Mean Placebo Corrected Change from Baseline Systolic BP (90% CI) (healthy volunteers; single dose 400 mg): 3.97 mmHg
Maximum MA4 HR change from baseline, LS mean (healthy subjects [4]; 25 mg QD): 1.47 bpm
Maximum MA4 HR, difference from placebo (healthy subjects [4]; 25 mg QD): −1.60 bpm
Maximum MA4 HR change from baseline, LS mean (healthy subjects [4]; 50 mg QD): 1.50 bpm
Maximum MA4 HR, difference from placebo (healthy subjects [4]; 50 mg QD): −1.57 bpm
Maximum MA4 HR change from baseline, LS mean (healthy subjects [4]; 100 mg QD): 3.28 bpm
Maximum MA4 HR change from baseline, LS mean (healthy subjects [4]; 150 mg QD): 3.17 bpm
Maximum MA4 HR, difference from placebo (healthy subjects [4]; 150 mg QD): 0.10 bpm
Maximum MA4 HR change from baseline, LS mean (healthy subjects [4]; 200 mg QD): 5.67 bpm
Maximum MA4 HR, difference from placebo (healthy subjects [4]; 200 mg QD): 2.60 bpm
Maximum MA4 HR change from baseline, LS mean (healthy subjects [4]; 300 mg QD): 9.06 bpm
Maximum MA4 HR, difference from placebo (healthy subjects [4]; 300 mg QD): 5.98 bpm
Maximum MA4 HR change from baseline, LS mean (healthy subjects [4]; 400 mg QD): 10.33 bpm
Maximum MA4 HR, difference from placebo (healthy subjects [4]; 400 mg QD): 7.26 bpm
AUC of 75 mg lower than 200 mg single dose [5]: ~2 fold
AUC of 75 mg lower than 400 mg single dose [5]: ~6 fold
Cmax of 75 mg lower than 200 mg single dose [5]: approximately 3.3 fold
Cmax of 75 mg lower than 400 mg single dose [5]: ~9.2 fold
increase in Cmax with increase in dose from 50 to 100 mg [5]: ~4 fold
reduction in Cmax on decreasing dose from 100 mg to 75 mg [5]: ~40%
mean increase in AUC, moderate renal impairment vs normal renal function ([6]; in vivo): 1.6 fold
AUC0-inf higher compared to healthy matched controls ([6]; mild renal impairment): 49%
CLR reduced compared to healthy matched controls ([6]; mild renal impairment): 39%
Cmax higher compared to healthy matched controls ([6]; mild renal impairment): 96%
AUC0-inf higher compared to healthy matched controls ([6]; moderate renal impairment): 106%
CLR reduced compared to healthy matched controls ([6]; moderate renal impairment): 65%
Cmax higher compared to healthy matched controls ([6]; moderate renal impairment): 68%
AUC0-inf higher compared to healthy matched controls ([6]; severe renal impairment): 83%
CLR reduced compared to healthy matched controls ([6]; severe renal impairment): 82%
Cmax higher compared to healthy matched controls ([6]; severe renal impairment): 42%
CL/F [6, 10]: 64.9 L/h
Fe[urine] 48 hr [6, 10]: 7.9%
AUC0-inf ([6]; mild renal impairment): 2290 ng·h/mL
CL/F ([6]; mild renal impairment): 43.6 L/h
Fe[urine] 48 hr ([6]; mild renal impairment): 8.5%
CL/F ([6]; moderate renal impairment): 31.5 L/h
Fe[urine] 48 hr ([6]; moderate renal impairment): 5.5%
AUC0-inf ([6]; severe renal impairment): 2820 ng·h/mL
CL/F ([6]; severe renal impairment): 35.5 L/h
Fe[urine] 48 hr ([6]; severe renal impairment): 2.1%
CL/F increase per one mL/min/1.73 m2 increase in eGFR ([6]; slope of linear regression): ~0.8%
binding to β2-AR (β2-AR): does not bind
Apparent terminal t1/2 [7]: 92.5 (9.37%) hr
Accidental overdose ([8]; 3 mg QD): 3 (2.1) n (%)
Accidental overdose ([8]; 15 mg QD): 6 (4.5) n (%)
Accidental overdose ([8]; 50 mg QD): 4 (2.7) n (%)
Accidental overdose ([8]; 100 mg QD): 11 (4.2) n (%)
≥1 AE ([8]; 100 mg QD): 107 (41.0) n (%)
frequency of injuries ([8]; human, in vivo): 0.9%
dose recovered in feces [9]: approximately 59%
dose recovered in urine [9]: ~20%
SBP and DBP mean changes at Week 1 and mean maximum changes over 8 weeks, difference between placebo and vibegron (patients with OAB): < 1 mm Hg
